According to PubChem BioAssay (NCI):
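In this assay, cells in 96-well plates receive the compound at five concentrations for 48 hours. Endpoints are linearly interpolated between the surrounding concentrations. GI50 marks 50% less growth. TGI marks complete inhibition of growth.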

Key:
Experiment in all cases: NCI-60 cell line screen, 48 h
786-0 renal = system: 786-0 renal
A498 renal = system: A498 renal
A549 NSCLC = system: A549 NSCLC
ACHN renal = system: ACHN renal
BT-549 breast = system: BT-549 breast
CAKI-1 renal = system: CAKI-1 renal
CCRF-CEM leukemia = system: CCRF-CEM leukemia
COLO 205 colon = system: COLO 205 colon
DU-145 prostate = system: DU-145 prostate
EKVX NSCLC = system: EKVX NSCLC
HCC-2998 colon = system: HCC-2998 colon
HCT-116 colon = system: HCT-116 colon
HCT-15 colon = system: HCT-15 colon
HL-60(TB) leukemia = system: HL-60(TB) leukemia
HOP-62 NSCLC = system: HOP-62 NSCLC
HOP-92 NSCLC = system: HOP-92 NSCLC
HS 578T breast = system: HS 578T breast
HT29 colon = system: HT29 colon
IGROV1 ovarian = system: IGROV1 ovarian
KM12 colon = system: KM12 colon
LOX IMVI melanoma = system: LOX IMVI melanoma
M14 melanoma = system: M14 melanoma
MALME-3M melanoma = system: MALME-3M melanoma
MCF7 breast = system: MCF7 breast
MDA-MB-231 breast = system: MDA-MB-231 breast
MDA-MB-435 = system: MDA-MB-435
MOLT-4 leukemia = system: MOLT-4 leukemia
NCI-H226 lung = system: NCI-H226 lung
NCI-H23 lung = system: NCI-H23 lung
NCI-H460 lung = system: NCI-H460 lung
NCI-H522 lung = system: NCI-H522 lung
NCI/ADR-RES ovarian = system: NCI/ADR-RES ovarian
OVCAR-3 ovarian = system: OVCAR-3 ovarian
OVCAR-4 ovarian = system: OVCAR-4 ovarian
OVCAR-5 ovarian = system: OVCAR-5 ovarian
OVCAR-8 ovarian = system: OVCAR-8 ovarian
PC-3 prostate = system: PC-3 prostate
RPMI-8226 leukemia = system: RPMI-8226 leukemia
RXF 393 renal = system: RXF 393 renal
SF-268 CNS = system: SF-268 CNS
SF-295 CNS = system: SF-295 CNS
SF-539 CNS = system: SF-539 CNS
SK-MEL-2 melanoma = system: SK-MEL-2 melanoma
SK-MEL-28 melanoma = system: SK-MEL-28 melanoma
SK-MEL-5 melanoma = system: SK-MEL-5 melanoma
SK-OV-3 ovarian = system: SK-OV-3 ovarian
SN12C renal = system: SN12C renal
SNB-19 CNS = system: SNB-19 CNS
SNB-75 CNS = system: SNB-75 CNS
SR leukemia = system: SR leukemia
SW-620 colon = system: SW-620 colon
T-47D breast = system: T-47D breast
TK-10 renal = system: TK-10 renal
U251 CNS = system: U251 CNS
UACC-257 melanoma = system: UACC-257 melanoma
UACC-62 melanoma = system: UACC-62 melanoma
UO-31 renal = system: UO-31 renal

## O=C1C(c2ccccc2)=C(N2CCc3ccccc32)OC1(Cl)Cl
786-0 renal
  GI50: 1.82 µM
  TGI: 4.21 µM
A498 renal
  GI50: 3.94 µM
  TGI: 14.6 µM
A549 NSCLC
  GI50: 4.71 µM
  TGI: 32.7 µM
ACHN renal
  GI50: 2.27 µM
  TGI: 7.14 µM
BT-549 breast
  GI50: 2.15 µM
  TGI: 6.26 µM
CAKI-1 renal
  GI50: 1.47 µM
  TGI: 3.47 µM
CCRF-CEM leukemia
  GI50: 1.47 µM
  TGI: 5.56 µM
COLO 205 colon
  GI50: 1.85 µM
  TGI: 4.36 µM
DU-145 prostate
  GI50: 1.97 µM
  TGI: 3.9 µM
EKVX NSCLC
  GI50: 2.7 µM
  TGI: 8.94 µM
HCC-2998 colon
  GI50: 2.91 µM
  TGI: 8.88 µM
HCT-116 colon
  GI50: 1.58 µM
  TGI: 8.04 µM
HCT-15 colon
  GI50: 1.74 µM
  TGI: 4.56 µM
HL-60(TB) leukemia
  GI50: 2.21 µM
  TGI: 5.62 µM
HOP-62 NSCLC
  GI50: 12.2 µM
  TGI: 35.8 µM
HOP-92 NSCLC
  GI50: 1.81 µM
  TGI: 5.21 µM
HS 578T breast
  GI50: 2.99 µM
  TGI: > 100 µM
HT29 colon
  GI50: 2.25 µM
  TGI: 5.37 µM
IGROV1 ovarian
  GI50: 4.44 µM
  TGI: 29 µM
KM12 colon
  GI50: 5.13 µM
  TGI: 18.8 µM
LOX IMVI melanoma
  GI50: 1.65 µM
  TGI: 3.63 µM
M14 melanoma
  GI50: 1.77 µM
  TGI: 3.73 µM
MALME-3M melanoma
  GI50: 1.89 µM
  TGI: 4.38 µM
MCF7 breast
  GI50: 2.29 µM
  TGI: 9.59 µM
MDA-MB-231 breast
  GI50: 2.89 µM
  TGI: 9.09 µM
MDA-MB-435
  GI50: 3.26 µM
  TGI: 11.4 µM
MOLT-4 leukemia
  GI50: 1.86 µM
  TGI: 5.13 µM
NCI-H226 lung
  GI50: 1.8 µM
  TGI: 4.27 µM
NCI-H23 lung
  GI50: 1.96 µM
  TGI: 4.67 µM
NCI-H460 lung
  GI50: 3.96 µM
  TGI: 20.2 µM
NCI-H522 lung
  GI50: 1.7 µM
  TGI: 4.17 µM
NCI/ADR-RES ovarian
  GI50: 3.21 µM
  TGI: > 100 µM
OVCAR-3 ovarian
  GI50: 1.91 µM
  TGI: 3.89 µM
OVCAR-4 ovarian
  GI50: 3.38 µM
  TGI: 13.6 µM
OVCAR-5 ovarian
  GI50: 3.57 µM
  TGI: 10.4 µM
OVCAR-8 ovarian
  GI50: 3.58 µM
  TGI: > 100 µM
PC-3 prostate
  GI50: 4.03 µM
  TGI: 54.6 µM
RPMI-8226 leukemia
  GI50: 2.36 µM
  TGI: 6.09 µM
RXF 393 renal
  GI50: 1.44 µM
  TGI: 2.86 µM
SF-268 CNS
  GI50: 3.92 µM
  TGI: 29.4 µM
SF-295 CNS
  GI50: 14.1 µM
  TGI: 32.4 µM
SF-539 CNS
  GI50: 2.19 µM
  TGI: 5.17 µM
SK-MEL-2 melanoma
  GI50: 3.57 µM
  TGI: 18.6 µM
SK-MEL-28 melanoma
  GI50: 2.27 µM
  TGI: 4.99 µM
SK-MEL-5 melanoma
  GI50: 4.35 µM
  TGI: 16.9 µM
SK-OV-3 ovarian
  GI50: 13.4 µM
  TGI: 30.9 µM
SN12C renal
  GI50: 2.7 µM
  TGI: 8.58 µM
SNB-19 CNS
  GI50: 5.27 µM
  TGI: 22.9 µM
SNB-75 CNS
  GI50: 2.52 µM
  TGI: 17.2 µM
SR leukemia
  GI50: 1.67 µM
  TGI: 5.92 µM
SW-620 colon
  GI50: 1.57 µM
  TGI: 4.21 µM
T-47D breast
  GI50: 2.19 µM
  TGI: 9.86 µM
TK-10 renal
  GI50: 2 µM
  TGI: 4.91 µM
U251 CNS
  GI50: 7.34 µM
  TGI: 21.6 µM
UACC-257 melanoma
  GI50: 2.53 µM
  TGI: 8.28 µM
UACC-62 melanoma
  GI50: 2.73 µM
  TGI: 10.8 µM
UO-31 renal
  GI50: 1.44 µM
  TGI: 3.07 µM
